This is an account of results in patent publication US20230115945A1, “AMINOPYRIMIDINE COMPOUNDS” (TYRA BIOSCIENCES, INC., priority 2019, published 2023).

The subject of experiment [1] is RT112/84 cells (Bladder Cancer, FGFR3-TACC3 fusion). Kind of experiment: Cancer cell line cell viability assay, RT112/84. The class given is cell-based. Conditions: Homo sapiens, 72 hours, Cell Titer-Glo 2.0, read-out: Cancer Cell Viability Assays RT112/84 (IC50 nM). The source says: (§1) [table] To detect the change of intracellular ATP by Cell Titer-Glo® and to evaluate the inhibitory effect of the compounds on cancer cell lines by determining the in vitro IC50 value of the compounds. Cell Titer-Glo® 2.0 Luminescent cell viability assay reagent was purchased from Promega (Madison, Wis.). RT112/84, SNU-16, and KG-1 cell lines were purchased from American Type Culture Collection (Manassas, Va.). UM-UC-14 cell line was purchased from Sigma (St. Louis, Mo.). RT112/84, UM-UC-14, SNU-16, and KG-1 cells were cultured in RPMI1640 media supplemented with 10% fetal bovine serum. Cultures were maintained at 37° C. in a humidified atmosphere of 5% CO2 and 95% air. Cell Viability Assay Procedure: Cells were plated in 96-well clear bottom/white plates (Corning #3903) at 10,000 cells/well in 100 μl of media, incubated overnight. The next day, test compound DMSO stock solutions were made at 10 mM and 2 μM final concentration. Compounds were then added to cells in a 9-dose, […] dilution series starting at 30 μM with an HP 300e Digital Dispenser (each dose was applied in triplicate). DMSO was backfilled to each well up to 301 nL total volume of test compound+DMSO, and a total of 301 nL DMSO was added to a control/no test compound well in triplicate. The cells in cell culture plates were incubated with the compounds at 37° C. and 5% CO2 for 72 hours. Then 50 μl of Cell Titer Glo 2.0 reagent was added to each well of the cell culture plates. The contents were covered from light and mixed on an orbital shaker at room temperature for 10 min. Luminescence was recorded by a Synergy H1 Microplate Reader (Biotek, Winooski, Vt.). Cells were assessed as a percentage of DMSO only treated control cells. Curves were plotted and IC50 values were calculated using the GraphPad Prism 8 program based on a sigmoidal dose-response equation (4 parameter).

Experiment [2] deals with T1, FGFR1 (Homo sapiens, UniProt P11362).
T1 construct: made in house; host or cells: E. coli host derived from BL21, infected with T7 phage
As to the kind of experiment: Kinase binding assay (Kd), FGFR1. The conditions noted are these: 11-point 3-fold dilution, qPCR readout. An outline of the steps:
(§2)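 Competition binding, phage-tagged kinase vs. bead-bound ligand; 11-pt 3-fold cpd series, 0.9% DMSO final; 1 h RT shaking; eluate kinase by qPCR; Kd via Hill fit (slope −1, Levenberg–Marquardt).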

Experiment [3] has as its target T2, FGFR2 (Homo sapiens, UniProt P21802).
T2 construct: made in house; host or cells: E. coli host derived from BL21, infected with T7 phage
As to the kind of experiment: Kinase binding assay (Kd), FGFR2. Conditions: 11-point 3-fold dilution, qPCR readout. An outline of the steps:
as §2

The target in experiment [4] is T3, FGFR3 (Homo sapiens, UniProt P22607).
T3 construct: made in house; host or cells: E. coli host derived from BL21, infected with T7 phage
Kind of experiment: Kinase binding assay (Kd), FGFR3. The conditions noted are these: 11-point 3-fold dilution, qPCR readout. An outline of the steps: as §2

Experiment [5] concerns the target T4, FGFR4 (Homo sapiens, UniProt P22455).
T4 construct: made in house; host or cells: E. coli host derived from BL21, infected with T7 phage
Kind of experiment: Kinase binding assay (Kd), FGFR4. The conditions noted are these: 11-point 3-fold dilution, qPCR readout. An outline of the steps: as §2

The subject of experiment [6] is SNU-16 cells (Gastric Carcinoma, FGFR2 amplification). As to the kind of experiment: Cancer cell line cell viability assay, SNU-16. The class given is cell-based. The conditions noted are these: Homo sapiens, 72 hours, Cell Titer-Glo 2.0, read-out: Cancer Cell Viability Assays SNU-16 (IC50 nM).
Text: as §1

Experiment [7] deals with T5, FGFR3 (V555M) (Homo sapiens, UniProt P22607, V555M).
T5 construct: made in house; host or cells: E. coli host derived from BL21, infected with T7 phage
Kind of experiment: Kinase binding assay (Kd), FGFR3 (V555M). The conditions noted are these: 11-point 3-fold dilution, qPCR readout. An outline of the steps:
as §2

T2 sequence (P21802 22-821): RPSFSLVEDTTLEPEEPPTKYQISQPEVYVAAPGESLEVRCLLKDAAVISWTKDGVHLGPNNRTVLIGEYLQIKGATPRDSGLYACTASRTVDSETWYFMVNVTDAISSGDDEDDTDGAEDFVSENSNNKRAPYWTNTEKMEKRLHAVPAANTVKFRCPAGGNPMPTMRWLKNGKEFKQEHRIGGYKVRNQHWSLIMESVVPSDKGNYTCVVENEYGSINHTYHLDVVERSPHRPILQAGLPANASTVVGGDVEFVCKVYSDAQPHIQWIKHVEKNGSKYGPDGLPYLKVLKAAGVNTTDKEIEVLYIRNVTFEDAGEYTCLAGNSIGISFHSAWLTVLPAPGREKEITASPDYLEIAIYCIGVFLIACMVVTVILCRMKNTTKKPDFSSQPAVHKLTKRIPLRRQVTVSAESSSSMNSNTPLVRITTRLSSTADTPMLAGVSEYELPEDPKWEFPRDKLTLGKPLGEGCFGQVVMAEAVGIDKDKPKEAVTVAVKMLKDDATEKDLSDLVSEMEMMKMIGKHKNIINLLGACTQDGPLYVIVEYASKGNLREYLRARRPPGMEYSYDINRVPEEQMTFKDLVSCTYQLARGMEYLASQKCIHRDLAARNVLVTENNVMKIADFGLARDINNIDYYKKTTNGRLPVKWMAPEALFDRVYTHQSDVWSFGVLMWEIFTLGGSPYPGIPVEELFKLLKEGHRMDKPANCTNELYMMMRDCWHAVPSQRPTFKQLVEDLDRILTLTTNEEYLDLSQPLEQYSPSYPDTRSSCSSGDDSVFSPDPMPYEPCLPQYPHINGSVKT
T4 sequence (P22455 22-802): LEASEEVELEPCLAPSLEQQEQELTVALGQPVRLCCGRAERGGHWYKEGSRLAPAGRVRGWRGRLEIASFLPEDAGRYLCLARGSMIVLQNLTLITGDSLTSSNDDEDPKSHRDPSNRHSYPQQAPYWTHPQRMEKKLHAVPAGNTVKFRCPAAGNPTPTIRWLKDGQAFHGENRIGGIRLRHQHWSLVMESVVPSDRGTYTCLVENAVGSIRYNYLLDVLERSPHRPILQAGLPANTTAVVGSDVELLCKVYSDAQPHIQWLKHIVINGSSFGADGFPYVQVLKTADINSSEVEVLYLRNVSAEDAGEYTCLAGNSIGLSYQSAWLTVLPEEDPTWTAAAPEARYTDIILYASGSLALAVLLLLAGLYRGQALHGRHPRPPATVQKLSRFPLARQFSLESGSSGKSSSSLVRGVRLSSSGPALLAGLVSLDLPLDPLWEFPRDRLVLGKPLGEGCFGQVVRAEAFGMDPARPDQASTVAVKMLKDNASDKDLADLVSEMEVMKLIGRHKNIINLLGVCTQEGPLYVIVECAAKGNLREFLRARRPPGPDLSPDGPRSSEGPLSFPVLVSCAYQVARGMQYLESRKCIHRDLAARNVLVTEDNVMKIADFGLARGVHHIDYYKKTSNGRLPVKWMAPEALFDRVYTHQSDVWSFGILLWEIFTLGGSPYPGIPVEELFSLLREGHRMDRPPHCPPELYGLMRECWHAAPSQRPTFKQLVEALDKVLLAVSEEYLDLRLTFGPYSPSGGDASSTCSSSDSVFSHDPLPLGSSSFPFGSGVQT
T1 sequence (P11362 22-822): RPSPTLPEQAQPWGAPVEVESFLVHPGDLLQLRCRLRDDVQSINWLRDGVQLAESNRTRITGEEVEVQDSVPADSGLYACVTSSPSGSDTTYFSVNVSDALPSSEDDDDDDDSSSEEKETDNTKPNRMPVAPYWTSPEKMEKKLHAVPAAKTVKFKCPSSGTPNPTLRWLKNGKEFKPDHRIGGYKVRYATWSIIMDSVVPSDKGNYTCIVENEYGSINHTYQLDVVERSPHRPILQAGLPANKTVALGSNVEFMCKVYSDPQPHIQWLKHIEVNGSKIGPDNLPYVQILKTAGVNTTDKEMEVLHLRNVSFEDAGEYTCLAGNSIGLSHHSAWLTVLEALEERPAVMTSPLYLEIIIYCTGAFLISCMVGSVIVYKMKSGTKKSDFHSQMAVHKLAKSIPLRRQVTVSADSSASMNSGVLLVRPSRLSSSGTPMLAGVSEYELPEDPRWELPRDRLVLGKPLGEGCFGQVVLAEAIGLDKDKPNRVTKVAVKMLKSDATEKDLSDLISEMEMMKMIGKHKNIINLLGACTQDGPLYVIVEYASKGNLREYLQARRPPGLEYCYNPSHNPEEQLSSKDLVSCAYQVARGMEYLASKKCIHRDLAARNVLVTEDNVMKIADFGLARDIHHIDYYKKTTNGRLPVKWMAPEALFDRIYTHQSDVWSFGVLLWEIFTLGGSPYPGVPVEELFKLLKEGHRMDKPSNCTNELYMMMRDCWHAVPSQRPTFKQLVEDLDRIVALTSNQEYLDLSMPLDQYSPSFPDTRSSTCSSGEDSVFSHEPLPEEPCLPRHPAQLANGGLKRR
T5 sequence (P22607 23-806 V555M): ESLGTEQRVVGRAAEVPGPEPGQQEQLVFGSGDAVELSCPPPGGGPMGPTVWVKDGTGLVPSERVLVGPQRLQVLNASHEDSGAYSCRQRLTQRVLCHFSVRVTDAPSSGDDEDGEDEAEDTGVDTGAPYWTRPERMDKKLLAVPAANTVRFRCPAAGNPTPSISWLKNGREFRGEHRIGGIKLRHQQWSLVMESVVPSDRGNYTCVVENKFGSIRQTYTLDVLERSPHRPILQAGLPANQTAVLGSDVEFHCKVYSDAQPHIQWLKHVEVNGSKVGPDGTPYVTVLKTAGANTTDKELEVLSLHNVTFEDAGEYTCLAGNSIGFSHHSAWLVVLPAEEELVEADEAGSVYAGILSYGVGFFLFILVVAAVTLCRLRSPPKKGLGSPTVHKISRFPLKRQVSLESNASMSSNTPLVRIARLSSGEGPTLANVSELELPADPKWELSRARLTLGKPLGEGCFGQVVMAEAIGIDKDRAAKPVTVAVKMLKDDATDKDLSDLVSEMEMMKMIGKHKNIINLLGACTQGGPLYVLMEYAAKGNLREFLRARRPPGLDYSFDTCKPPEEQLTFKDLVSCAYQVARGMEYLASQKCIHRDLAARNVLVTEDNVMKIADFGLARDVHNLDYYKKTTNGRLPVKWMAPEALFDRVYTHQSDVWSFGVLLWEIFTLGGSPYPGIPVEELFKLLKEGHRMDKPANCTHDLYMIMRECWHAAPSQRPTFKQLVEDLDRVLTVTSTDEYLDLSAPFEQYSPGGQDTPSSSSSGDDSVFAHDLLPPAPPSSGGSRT
T3 sequence (P22607 23-806): as the sequence (P22607 23-806 V555M) above, with M533V counted along it

For the compound `CC(C)Oc1cc(N=S(C)(C)=O)ccc1Nc1ncc(Cl)c(-c2c[nH]c3ccccc23)n1` [Example 3, 5-chloro-N-[4-[[dimethyl(oxo)-λ^6-sulfanylidene]amino]-2-isopropoxy-phenyl]-4-(1H-indol-3-yl)pyrimidin-2-amine], the results for the IC50 in experiment [1] and in experiment [6] were 100 nM and 73 nM, respectively. Also, the dissociation constant Kd in experiment [2] is 4500 nM; in experiment [3], 11000 nM; in experiment [4] it was 4700 nM; in experiment [5] it was 0.29 µM.

For the compound `Cc1cnc(Nc2ccc(N=S(C)(C)=O)nc2)nc1-c1c[nH]c2ccccc12` [Example 23, N-[6-[[dimethyl(oxo)-λ^6-sulfanylidene]amino]-3-pyridyl]-4-(1H-indol-3-yl)-5-methyl-pyrimidin-2-amine], the IC50 in experiment [1] came to 118 nM; in experiment [6], 132 nM. The Kd in experiment [7] turned out to be 1 nM; in experiment [2] it was 8 nM; in experiment [3], 6 nM; in experiment [4], 12 nM; in experiment [5] it was 0.13 µM.

In the case of `Cc1cc(Nc2ncc(C)c(-c3c[nH]c4ccccc34)n2)ccc1N=S(C)(C)=O` [Example 24, N-[4-[[dimethyl(oxo)-λ^6-sulfanylidene]amino]-3-methyl-phenyl]-4-(1H-indol-3-yl)-5-methyl-pyrimidin-2-amine], the IC50 in experiment [1] was 33 nM; in experiment [6], 60 nM. For the same compound, the Kd in experiment [7] was 1 nM; in experiment [2], 4 nM; in experiment [3], 7 nM; in experiment [4], 10 nM; in experiment [5], 0.087 µM.

With `Cc1cnc(Nc2ccc(N=S(C)(C)=O)c(Cl)c2)nc1-c1c[nH]c2ccccc12` [Example 25, N-[3-chloro-4-[[dimethyl(oxo)-λ^6-sulfanylidene]amino]phenyl]-4-(1H-indol-3-yl)-5-methyl-pyrimidin-2-amine], the IC50 in experiment [1] was 63 nM; in experiment [6], 117 nM. The dissociation constant Kd was found to be 2 nM in experiment [7]; 7 nM in experiment [2]; 9 nM in experiment [3]; 13 nM in experiment [4]; 0.089 µM in experiment [5].

On to `COc1cc(N=S2(=O)CCN(C)CC2)ccc1Nc1ncc(Cl)c(-c2c[nH]c3ccccc23)n1` [Example 38, 5-Chloro-4-(1H-indol-3-yl)-N-[2-methoxy-4-[(4-methyl-1-oxo-1,4-thiazinan-1-ylidene)-amino]phenyl]pyrimidin-2-amine], for which the IC50 in experiment [1] worked out at 119 nM; in experiment [6], 130 nM. In addition, the Kd was determined as 3 nM in experiment [7]; 25 nM in experiment [2]; 92 nM in experiment [3]; 34 nM in experiment [4]; 0.026 µM in experiment [5].

Regarding `Cc1cnc(Nc2ccc(N=S3(=O)CCN(C)CC3)cc2)nc1-c1c[nH]c2ccccc12` [Example 49, 4-(1H-Indol-3-yl)-5-methyl-N-[4-[(4-methyl-1-oxo-1,4-thiazinan-1-ylidene)amino]-phenyl]pyrimidin-2-amine], the IC50 in experiment [1] is 78 nM; in experiment [6], 189 nM. For the same compound, the Kd in experiment [7] was 1 nM; in experiment [2], 8 nM; in experiment [3], 4 nM; in experiment [4], 8 nM; in experiment [5], 0.12 µM.

As for `CS(C)(=O)=Nc1ccc(Nc2ncc(Cl)c(-n3ccc4c(NC(=O)C5CC5)cccc43)n2)cc1` [Example 78, N-[1-[5-Chloro-2-[4-[[dimethyl(oxo)-λ^6-sulfanylidene]amino]anilino]-pyrimidin-4-yl]indol-4-yl]cyclopropanecarboxamide], the Kd in experiment [7] amounted to 5 nM; in experiment [2], 250 nM; in experiment [3] it was 290 nM; in experiment [4], 140 nM; in experiment [5], 4.6 µM.

As to `CS(C)(=O)=Nc1ccc(Nc2ncc(Cl)c(-n3ccc4c(N)cccc43)n2)cc1` [Example 79, 1-[5-Chloro-2-[4-[[dimethyl(oxo)-λ^6-sulfanylidene]amino]anilino]-pyrimidin-4-yl]indol-4-amine], the equilibrium dissociation constant (Kd) in experiment [7] came out at 7 nM; in experiment [2], 140 nM; in experiment [3] it was 140 nM; in experiment [4] it was 87 nM; in experiment [5], 1 µM.

For the compound `CS(C)(=O)=Nc1ccc(Nc2ncc(Cl)c(-n3ccc4cc(NC(=O)C5CC5)ccc43)n2)cc1` [Example 80, N-[1-[5-Chloro-2-[4-[[dimethyl(oxo)-λ^6-sulfanylidene]amino]anilino]-pyrimidin-4-yl]indol-5-yl]cyclopropanecarboxamide], the Kd in experiment [7] was found to be 23 nM; in experiment [2], 740 nM; in experiment [3], 680 nM; in experiment [4], 340 nM; in experiment [5], 5.3 µM.

In the case of `C=CC(=O)Nc1cccc2c1ccn2-c1nc(Nc2ccc(N3CCS(=N)(=O)CC3)cc2)ncc1Cl` [Example 81], the Kd is 2 nM in experiment [7]; 51 nM in experiment [2]; 62 nM in experiment [3]; 23 nM in experiment [4]; 1.9 µM in experiment [5].

Consider `N=S1(=O)CCN(c2ccc(Nc3ncc(Cl)c(-n4ccc5c(N)cccc54)n3)cc2)CC1` [Example 82, 1-[5-Chloro-2-[4-(1-imino-1-oxo-1,4-thiazinan-4-yl)anilino]pyrimidin-4-yl]indol-4-amine], for which the Kd was found to be 2 nM in experiment [7]; 59 nM in experiment [2]; 50 nM in experiment [3]; 42 nM in experiment [4]; 0.45 µM in experiment [5].

As for `CCC(=O)Nc1cccc2c1ccn2-c1nc(Nc2ccc(N3CCS(=N)(=O)CC3)cc2)ncc1Cl` [Example 83, N-[1-[5-Chloro-2-[4-(1-imino-1-oxo-1,4-thiazinan-4-yl)anilino]pyrimidin-4-yl]indol-4-yl]propanamide], the Kd was determined as 3 nM in experiment [7]; 86 nM in experiment [2]; 79 nM in experiment [3]; 59 nM in experiment [4]; 1.1 µM in experiment [5].

For `C=CC(=O)Nc1ccc2c(ccn2-c2nc(Nc3ccc(N=S(C)(C)=O)c(F)c3)ncc2Cl)c1C` [Example 84, N-[1-[5-Chloro-2-[4-[[dimethyl(oxo)-λ^6-sulfanylidene]amino]-3-fluoro-anilino]pyrimidin-4-yl]-4-methyl-indol-5-yl]prop-2-enamide], the Kd came to 11 nM in experiment [7]; 390 nM in experiment [2]; 330 nM in experiment [3]; 150 nM in experiment [4]; 2.3 µM in experiment [5].

As for `C=CC(=O)Nc1ccc2c(cnn2-c2nc(Nc3ccc(N=S(C)(C)=O)cc3)ncc2Cl)c1` [Example 86, N-[1-[5-Chloro-2-[4-[[dimethyl(oxo)-λ^6-sulfanylidene]amino]anilino]-pyrimidin-4-yl]indazol-5-yl]prop-2-enamide], the Kd in experiment [7] came to 7.1 nM; in experiment [2], 90 nM; in experiment [3], 63 nM; in experiment [4] it was 46 nM; in experiment [5], 0.24 µM.

For `CS(C)(=O)=Nc1ccc(Nc2ncc(Cl)c(-n3ncc4cc(N)ccc43)n2)cc1` [Example 87, 1-[5-Chloro-2-[4-[[dimethyl(oxo)-λ^6-sulfanylidene]amino]anilino]-pyrimidin-4-yl]indazol-5-amine], the Kd was 16 nM in experiment [7]; 160 nM in experiment [2]; 130 nM in experiment [3]; 130 nM in experiment [4]; 2.4 µM in experiment [5].

`C=CC(=O)Nc1ccc2c(-c3nc(Nc4ccc(S(C)(=N)=O)cc4)ncc3Cl)c[nH]c2c1` (stereo not shown) [Example 89, N-[3-[5-chloro-2-[4-(methylsulfonimidoyl)anilino]pyrimidin-4-yl]-1H-indol-6-yl]prop-2-enamide]: the Kd in experiment [7] was 7.5 nM; in experiment [2] it was 76 nM; in experiment [3], 50 nM; in experiment [4], 70 nM; in experiment [5], 0.51 µM.
